Reference: US9932346B2, “Pyrrolopyrimidines for use in influenza virus infection” (Janssen Sciences Ireland UC, priority 2014, dated 2018)

Tests used:
[1] = test system: influenza virus A/Taiwan/1/86 (H1N1); test: organism not typed; format: cell-based; conditions: MDCK cells infected with influenza A/Taiwan/1/86 (H1N1), three days post-virus exposure, CPE by ATP levels
in vitro = conditions: dog
MDCK cells = conditions: dog, 3 days

Row | SMILES | IC50 ([1]; MDCK, 72 h) [nM] | CC50 at 3 days (in vitro) [nM] | IC50 [1] [nM] | CC50 (MDCK cells) [nM]
1 | O=C(N[C@H]1CCC[C@@H](Nc2nc(-c3c[nH]c4ncncc34)ncc2F)C1)C1CCCCO1 (mixture of isomers) [Compound 38] | 380 | > 25000 |  | 
2 | O=C(O)[C@H]1C2CCC(CC2)[C@@H]1Nc1nc(-c2c[nH]c3ncncc23)ncc1F (mixture of isomers) [Compound 54] | 460 | > 25000 |  | 
3 | O=C(N[C@H]1CCC[C@@H](Nc2nc(-c3c[nH]c4ncncc34)ncc2F)C1)N1CCCC1 (racemic) [Compound 7] | 5 | > 25000 |  | 
4 | O=C(N[C@H]1CCC[C@@H](Nc2nc(-c3c[nH]c4ncncc34)ncc2F)C1)c1ccn2nccc2n1 (racemic) [Compound 29] | 10 | > 25000 |  | 
5 | Cc1cc(C(=O)N[C@H]2CCC[C@@H](Nc3nc(-c4c[nH]c5ncncc45)ncc3F)C2)nn1C (racemic) [Compound 30] | 21 | > 25000 |  | 
6 | O=C(Nc1ccccc1)N[C@H]1CCC[C@@H](Nc2nc(-c3c[nH]c4ncncc34)ncc2F)C1 (racemic) [Compound 31] | 21 | > 25000 |  | 
7 | Cc1cc(C(=O)N[C@H]2CCC[C@@H](Nc3nc(-c4c[nH]c5ncncc45)ncc3F)C2)on1 (racemic) [Compound 32] | 35 | > 25000 |  | 
8 | O=C(N[C@H]1CCC[C@@H](Nc2nc(-c3c[nH]c4ncncc34)ncc2F)C1)c1ccncc1 (racemic) [Compound 33] | 42 | > 100000 |  | 
9 | Cc1cc(C(=O)N[C@@H]2CCC[C@@H](Nc3nc(-c4c[nH]c5ncncc45)ncc3F)C2)no1 (racemic) [Compound 34] | 40 | > 25000 |  | 
10 | O=C(N[C@H]1CCC[C@@H](Nc2nc(-c3c[nH]c4ncncc34)ncc2F)C1)c1ccccn1 (racemic) [Compound 35] | 2 | > 25000 |  | 
11 | Cc1nc(C(=O)N[C@H]2CCC[C@@H](Nc3nc(-c4c[nH]c5ncncc45)ncc3F)C2)c(C)o1 (racemic) [Compound 36] | 40 | > 25000 |  | 
12 | O=C(N[C@H]1CCC[C@@H](Nc2nc(-c3c[nH]c4ncncc34)ncc2F)C1)C1CCC1 (racemic) [Compound 37] | 205 | > 25000 |  | 
13 | O=C(N[C@H]1CCC[C@@H](Nc2nc(-c3c[nH]c4ncncc34)ncc2F)C1)C1CC1 (racemic) [Compound 39] | 114 | > 25000 |  | 
14 | Cc1noc(C)c1C(=O)N[C@H]1CCC[C@@H](Nc2nc(-c3c[nH]c4ncncc34)ncc2F)C1 (racemic) [Compound 40] | 190 | > 25000 |  | 
15 | CC(C)NC(=O)N[C@H]1CCC[C@@H](Nc2nc(-c3c[nH]c4ncncc34)ncc2F)C1 (racemic) [Compound 41] | 319 | > 25000 |  | 
16 | Cn1cccc1C(=O)N[C@H]1CCC[C@@H](Nc2nc(-c3c[nH]c4ncncc34)ncc2F)C1 (racemic) [Compound 45] | 4 | > 25000 |  | 
17 | O=C(N[C@H]1CCC[C@@H](Nc2nc(-c3c[nH]c4ncncc34)ncc2F)C1)c1ccno1 (racemic) [Compound 47] | 11 | > 25000 |  | 
18 | O=C(N[C@H]1CCC[C@@H](Nc2nc(-c3c[nH]c4ncncc34)ncc2F)C1)c1cccnc1 (racemic) [Compound 49] | 46 | > 25000 |  | 
19 | CC(C)(C)[C@@H](CO)Nc1nc(-c2c[nH]c3ncncc23)ncc1F (racemic) [Compound 55] | 550 | > 25000 |  | 
20 | COC(=O)N[C@H]1CCC[C@@H](Nc2nc(-c3c[nH]c4ncncc34)ncc2F)C1 (racemic) [Compound 56] | 600 | > 25000 |  | 
21 | O[C@H]1CCCC[C@@H]1Nc1nc(-c2c[nH]c3ncncc23)ncc1F (racemic) [Compound 58] | 630 | > 100000 |  | 
22 | CCC(=O)N[C@H]1CCC[C@@H](Nc2nc(-c3c[nH]c4ncncc34)ncc2F)C1 (racemic) [Compound 62] | 700 | > 25000 |  | 
23 | O=C(O)c1ccccc1C(=O)N[C@H]1CCC[C@@H](Nc2nc(-c3c[nH]c4ncncc34)ncc2F)C1 (racemic) [Compound 63] | 720 | > 25000 |  | 
24 | CC(C)(C)C(=O)N[C@H]1CCC[C@@H](Nc2nc(-c3c[nH]c4ncncc34)ncc2F)C1 (racemic) [Compound 64] | 760 | > 25000 |  | 
25 | COCC(=O)N[C@H]1CCC[C@@H](Nc2nc(-c3c[nH]c4ncncc34)ncc2F)C1 (racemic) [Compound 66] | 820 | > 25000 |  | 
26 | CC(C)C(=O)N[C@H]1CCC[C@@H](Nc2nc(-c3c[nH]c4ncncc34)ncc2F)C1 (racemic) [Compound 73] | 930 | > 25000 |  | 

Row | SMILES | IC50 ([1]; MDCK, 72 h) [nM] | CC50 at 3 days (in vitro) [nM] | IC50 [1] [nM] | CC50 (MDCK cells) [nM]
27 | N#Cc1cc(F)c(N[C@@H]2CCC[C@H](NC(=O)N3CCCC3)C2)nc1-c1c[nH]c2ncncc12 (stereo in doubt) [Compound 9, (+/−)-N-((cis)-3-((5-cyano-3-fluoro-6-(7H-pyrrolo[2,3-d]pyrimidin-5-yl)pyridin-2-yl)amino)cyclohexyl)pyrrolidine-1-carboxamide] | 9 | 8740 |  | 
28 | N#Cc1cc(F)c(N[C@H]2CCC[C@@H](NC(=O)N3CCCC3)C2)nc1-c1c[nH]c2ncncc12 (stereo in doubt) [Compound 93] | 6 | > 25000 |  | 
29 | Cn1cnc(C(=O)N[C@@H]2CCC[C@@H](Nc3nc(-c4c[nH]c5ncncc45)c(C#N)cc3F)C2)c1 [Compound 12] | 30 | > 25000 |  | 
30 | Cn1cnc(C(=O)N[C@H]2CCC[C@@H](Nc3nc(-c4c[nH]c5ncncc45)ncc3F)C2)c1 [Compound 14] | 47 | > 25000 |  | 
31 | Cn1cnc(C(=O)N[C@H]2CCC[C@@H](Nc3nc(-c4c[nH]c5ncncc45)c(F)cc3F)C2)c1 [Compound 16] | 36 | > 25000 |  | 
32 | CC(C)(C)C(CC(=O)O)Nc1nc(-c2c[nH]c3ncncc23)c(C(F)(F)F)cc1F (stereo not drawn) [Compound 18] | 44 | 2480 |  | 
33 | CC(C)(C)C(CC(=O)O)Nc1nc(-c2c[nH]c3ncncc23)c(C#N)cc1F (stereo not drawn) [Compound 21] | 106 | 13400 |  | 
34 | O=C(N[C@H]1CCC[C@@H](Nc2nc(-c3c[nH]c4ncncc34)c(F)cc2F)C1)N1CCCC1 [Compound 23] | 33 | > 25000 |  | 
35 | COC(=O)[C@H]1C2CCC(CC2)[C@@H]1Nc1nc(-c2c[nH]c3ncncc23)ncc1F [Compound 24] | 325 | > 25000 |  | 
36 | O=C(N[C@H]1CCC[C@@H](Nc2nc(C3CNc4ncncc43)ncc2F)C1)OCc1ccccc1 (stereo partly drawn) [Compound 28] | 351 | > 25000 |  | 
37 | O=C(O)[C@H]1C2CCC(CC2)[C@@H]1Nc1nc(-c2c[nH]c3ncncc23)c(C(F)(F)F)cc1F [Compound 44] | 3 | 9400 |  | 
38 | O=C(N[C@H]1CCC[C@@H](Nc2nc(-c3c[nH]c4ncncc34)cnc2F)C1)N1CCCC1 [Compound 46] | 5 | > 25000 |  | 
39 | Cn1cnc(C(=O)N[C@H]2CCC[C@@H](Nc3nc(-c4c[nH]c5ncncc45)ncc3F)C2)c1 [Compound 48] |  |  | 35 | > 25000
40 | CC1(C(CC(=O)O)Nc2nc(-c3c[nH]c4ncncc34)ncc2F)CCCC1 (stereo not drawn) [Compound 53] | 650 | > 25000 |  | 
41 | Fc1cnc(-c2c[nH]c3ncncc23)nc1NC1[C@H]2CC3C[C@H](C2)C[C@H]1C3 (stereo partly drawn) [Compound 57] | 660 | 5200 |  | 
42 | CC(C)Nc1nc(-c2c[nH]c3ncncc23)ncc1F [Compound 61] | 630 | > 25000 |  | 
43 | Fc1cnc(-c2c[nH]c3ncncc23)nc1NC1CCCCC1 [Compound 65] | 810 | 11600 |  | 
44 | COC(=O)CC(Nc1nc(-c2c[nH]c3ncncc23)ncc1F)C(C)(C)C (stereo not drawn) [Compound 69] | 830 | > 25000 |  | 
45 | CC[C@@]1(C(=O)O)CCCC[C@H]1Nc1nc(-c2c[nH]c3ncncc23)ncc1F [Compound 72] | 860 | 10300 |  | 
46 | Nc1ncnc2[nH]cc(-c3ncc(F)c(N[C@@H]4CCC[C@H](C(=O)N5CCCC5)C4)n3)c12 [Compound 79] | 150 | > 25000 |  | 
47 | Cc1[nH]c2ncncc2c1-c1ncc(F)c(N[C@@H]2CCC[C@H](NC(=O)N3CCCC3)C2)n1 [Compound 83] | 710 | > 25000 |  | 
48 | Cc1ncnc2[nH]cc(-c3ncc(F)c(N[C@@H]4CCC[C@H](NC(=O)N5CCCC5)C4)n3)c12 [Compound 87] | 470 | > 25000 |  | 
49 | Cc1ncc2c(-c3ncc(F)c(N[C@@H]4CCC[C@H](NC(=O)N5CCCC5)C4)n3)c[nH]c2n1 [Compound 92] | 180 | > 25000 |  | 
50 | N#Cc1cc(F)c(N[C@@H]2CCC[C@H](NC(=O)c3ccccn3)C2)nc1-c1c[nH]c2ncncc12 [Compound 98] | 2 | > 25000 |  | 
51 | N#Cc1cc(F)c(N[C@H]2C3CCC(CC3)[C@@H]2C(=O)O)nc1-c1c[nH]c2ncncc12 [Compound 101] | 36 | 10500 |  | 
